The text below walks through data of article PMC11251196, “Actinium chelation and crystallization in a macromolecular scaffold” (Nature Communications, 2024).

Holding throughout (type): binding
Assay [1] has as its target T1, siderocalin (Scn) (Homo sapiens, UniProt P80188).
T1 construct: gene LCN2
The experiment in a line: tryptophan fluorescence quenching titration of metal-free ligand, pH […].

Assay [2] addresses T1, siderocalin (Scn). The experiment in a line: tryptophan fluorescence quenching titration, pH […]; crystal structure at […] Å.
The target in assay [3] is T1, siderocalin (Scn). The assay is described as above. The source holds these as a separate data set.

T1 sequence (P80188 21-198): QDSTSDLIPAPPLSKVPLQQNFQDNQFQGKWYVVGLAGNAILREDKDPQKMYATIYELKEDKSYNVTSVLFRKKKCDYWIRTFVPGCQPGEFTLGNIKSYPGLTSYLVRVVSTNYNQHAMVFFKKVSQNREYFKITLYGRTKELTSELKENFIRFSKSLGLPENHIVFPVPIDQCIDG

What is called Kd is the free concentration of one partner at which half of the binding sites on the other are occupied at equilibrium, for simple one-to-one binding. Consider `O=C(NCCCN(CCCCN(CCCNC(=O)c1cccc(=O)n1O)C(=O)c1cccc(=O)n1O)C(=O)c1cccc(=O)n1O)c1cccc(=O)n1O` [HOPO, 3,4,3-LI(1,2-HOPO)], for which the Kd on siderocalin (Scn) [1] worked out at 43 nM.
In turn, `O=C(NCCCN(CCCCN(CCCNC(=O)c1cccc(=O)n1O)C(=O)c1cccc(=O)n1[O-])C(=O)c1cccc(=O)n1[O-])c1cccc(=O)n1[O-].[Ac+3]` [[Ac^III(HOPO)]^1–] showed a Kd on siderocalin (Scn) [2] of 6 nM.
`O=C(NCCCN(CCCCN(CCCNC(=O)c1cccc(=O)n1O)C(=O)c1cccc(=O)n1[O-])C(=O)c1cccc(=O)n1[O-])c1cccc(=O)n1[O-].[La+3]` [[La^III(HOPO)]^1–] registered a Kd at siderocalin (Scn) [3] of 20 nM.
